Reference: a melting point compilation (Tetko et al.; mined from patent text by program, amines drawn as free bases though some values may be those of a salt)

SMILES | melting point [°C]
Cc1noc(NS(=O)(=O)c2cccc(Cl)c2C)c1Br | 185 to 187
NC[C@@H](O)[C@H](Cc1ccccc1)N(Cc1ccccc1)Cc1ccccc1 | 72 to 76
c1ccc(CN2C[C@H]3CCCC[C@@]3(Cc3ccccc3)C2)cc1 (relative stereo) | 156 to 158
CCCCCCC(c1ccc2[nH]c(-c3ccc(F)cc3)nc2c1)n1ccnc1 (configuration not stated) | 122
CCOC(Cc1ccc(OCCn2c(CC)nc(-c3ccccc3)cc2=O)cc1)C(=O)O (configuration not stated) | 140 to 142
CCOC(=O)c1cn(Cc2ccc(OCc3coc(-c4ccccc4)n3)cc2)nc1-c1cccs1 | 114 to 115
CC1CC(=O)NN=C1c1ccc(NC(=NC#N)NCc2ccccn2)cc1 (configuration not stated) | 212 to 214
CC(=O)CCCCC(=O)Nc1ccc(C=CC(=O)O)cc1 | 222 to 225
O=C(O)c1cc(S)n2ncnc2n1 | 230 to 232
Cc1nnc2c3c(c(NCCN4CCCC4)nn12)CCCC3 | 184 to 186
COCCC(=O)Nc1ccc(Cl)c(C2(C)C(=O)N(Cc3ccc(OC)cc3OC)c3ccc(Cl)cc32)c1 (configuration not stated) | 168
O=C(NO)[C@H]1CN(S(=O)(=O)c2ccc(-c3ccon3)s2)CCN1S(=O)(=O)c1ccc(-c2ccccc2)s1 | 204
Cc1cc(C)cc(NC(=O)c2ccc([N+](=O)[O-])cc2)c1 | 206 to 210
Cc1ccc(C(=O)NCCCSc2ccncc2)s1 | 86 to 87
O=C(/C=C/C=C(c1ccccc1)c1ccccc1)Oc1ccc([N+](=O)[O-])cc1 | 113 to 115
COc1ccc2c(c1)c(Cc1cc(=O)n(-c3ccc(C(F)(F)F)cc3)[nH]1)c(C)n2C(=O)c1ccc(C#N)cc1 | 92 to 94
CS(=O)(=O)Oc1ccc2c(c1)C(=O)C(CC=O)C2 (racemic) | 85 to 87
Cc1cnc2c([N+](=O)[O-])ccc(Cl)c2c1Cl | 136 to 138
O=C(Nc1c(F)cccc1F)c1c(O)ccn2c1nc1ccccc12 | 232 to 235
O=c1ccc(C(c2ccccc2)c2ccc(Cl)cc2)c[nH]1 (configuration not stated) | 164 to 169
Cc1c(C(=O)O)nn(-c2ccc(Cl)cc2Cl)c1-c1ccc(Cl)cc1 | 211
CCc1nc2c(N)nc3ccccc3c2n1CC1(C(N)=O)CCC1 | 227 to 230
O=S(=O)(O)c1ccc(NCc2ccccc2F)cc1 | > 270
Cc1cccc(NC(=O)NC2N=C(C(C)C)c3ccccc3N(CC(=O)N3CC4CCC(CC4)C3)C2=O)c1 (configuration not stated) | 123 to 126
COc1cnnc(Cl)c1 | 98 to 100
CN(C)C1(c2ccccc2)CCC(=CC(=O)N2CCC(c3c[nH]c4ccc(Cl)cc34)CC2)CC1 (configuration not stated) | 115 to 119

SMILES | melting point [°C]
N#CCCN1CCC(c2[nH]cc3cc(F)ccc23)CC1 | 100 to 101
O=C1CCCN1S(=O)(=O)c1ccc(N2CCOCC2)cc1 | 120 to 122
CC1CN(N)C(=O)N1C (configuration not stated) | 162 to 164
Cn1cc(S(=O)(=O)NC(C)(C)C)cc1C=O | 97 to 98
CC(C)CCOCc1cccc(N2N=C(C(N)=O)NC2c2ccccc2F)c1 (configuration not stated) | 120 to 122
c1ccc(-c2ccc(CCN3CCN(c4ccccc4)CC3)s2)cc1 | 124
Nc1nc(Cl)cc(NC2C=CC(CO)C2)n1 (configuration not stated) | 132 to 134
CCn1ncc2c(NCC3CCCCC3)c3cc(OCC4CO4)ccc3nc21 (configuration not stated) | 160 to 163
OC1CSC(Oc2cccc3ocnc23)C(O)C1O (configuration not stated) | 172
CN(C)S(=O)(=O)c1cccc(Cl)c1S(N)(=O)=O | 171 to 182
CN(C)S(=O)(=O)CCCOc1ccc2ncnn2n1 | 151 to 153
O=C1c2ccccc2C(=O)N1CC(Br)(CBr)c1ccccc1 (configuration not stated) | 162 to 163
CN(C(CCn1c(=O)cc(Cl)n(C)c1=O)C(=O)NO)S(=O)(=O)c1ccc(Oc2ccccc2)cc1 (configuration not stated) | 90 to 93
CCOP(=O)(CCC1(C)NC(=O)NC1=O)OCC (configuration not stated) | 100 to 103
CP(C)(=O)COc1cc(Cl)c(C=O)c(Cl)c1 | 136 to 139
O=C(NNS(=O)(=O)c1ccccc1)c1ccccc1CCc1ccccc1 | 158 to 159
CN(CCc1ccc(NC(N)=S)cc1)Cc1ccccc1 | 119 to 122
O=C1CCC(c2ccccc2)(c2ccccc2)C2CN(C(Cc3ccccc3)=NCc3ccc(F)cc3)CC12 (configuration not stated) | 180
CCOC(=O)c1cnc2c(cnn2CCC(C)C)c1O | 65 to 70
CCn1c2c(c3ccccc31)S(=O)(=O)N(C)C(C(=O)Nc1ccccc1)=C2O | 268
O=C(/C=C/C=C(c1cccc(F)c1)c1cccc(F)c1)NCCCCc1cccnc1 | 103 to 104
O=C(O)c1ccc(CCn2ccn([C@H]3CCc4c(F)cc(F)cc4C3)c2=S)cc1 | 222 to 224
O=C(c1cccc(OCCCN2C(=O)c3ccccc3C2=O)c1)N1CCCCC1 | 120 to 122
O=C(Nc1cccc2c1C(=O)N(C1CCN(c3ccncc3)CC1)C2=O)c1ccc(Cl)s1 | 214
COc1ccccc1-c1ccc(C[C@H](NC(=O)c2c(Cl)cccc2Cl)C(=O)O)cc1OC | 100 to 102
CON=C(C(=O)OC(C)C)c1ccccc1CBr | 76 to 77
